Target: T1, Endothelin-1 receptor (Mus musculus, UniProt Q61614)
T1 sequence (Q61614 whole entry): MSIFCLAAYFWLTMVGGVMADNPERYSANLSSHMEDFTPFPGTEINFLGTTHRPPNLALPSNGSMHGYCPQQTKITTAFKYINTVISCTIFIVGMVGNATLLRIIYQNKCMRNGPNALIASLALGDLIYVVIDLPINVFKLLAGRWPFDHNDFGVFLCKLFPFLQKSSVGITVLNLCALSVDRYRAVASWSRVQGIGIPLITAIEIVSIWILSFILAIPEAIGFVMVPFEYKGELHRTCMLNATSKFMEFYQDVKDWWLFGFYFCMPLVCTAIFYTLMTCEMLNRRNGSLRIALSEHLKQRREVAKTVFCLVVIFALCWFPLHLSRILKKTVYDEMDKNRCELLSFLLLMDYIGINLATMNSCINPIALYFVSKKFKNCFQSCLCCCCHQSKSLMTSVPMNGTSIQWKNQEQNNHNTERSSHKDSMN
Assay: Binding affinity for Endothelin A receptor was determined in murine 3T3 cells
Format: cell-based, NIH3T3

| IC50 | SMILES |
| --- | --- |
| 250 nM | CC[C@H](C)[C@H](NC(=O)[C@@H](NC(=O)[C@@H](CC(=O)O)NC(=O)[C@H](N)CCCNC(=O)[C@H](Cc1ccccc1)NC(C)=O)[C@@H](C)CC)C(=O)N[C@@H](Cc1c[nH]c2ccccc12)C(=O)O |
| 230 nM | CC[C@H](C)[C@H](NC(=O)[C@H](CC(=O)O)NC(=O)[C@@H](N)CCCNC(=O)[C@H](Cc1ccccc1)NC(C)=O)C(=O)N[C@H](C(=O)N[C@@H](Cc1c[nH]c2ccccc12)C(=O)O)[C@@H](C)CC |
| 900 nM | CC[C@H](C)[C@H](NC(=O)[C@H](CC(=O)O)NC(=O)[C@H](N)CCCNC(=O)[C@H](Cc1ccccc1)NC(C)=O)C(=O)N[C@@H](C(=O)N[C@@H](Cc1c[nH]c2ccccc12)C(=O)O)[C@@H](C)CC |

Source: ChEMBL document CHEMBL1150490, “Endothelin eceptor Ligands. Multiple D-Amino acid replacement net approach” (Bioorg Med Chem Lett, 1993)
